Assay results: patent US20080108612A1, “Use of Purine Derivatives as HSP90 Protein Inhibitors” (AVENTIS PHARMA S.A., priority 2005, published 2008)
Counter-ions that a name gives are not always drawn. Like-named read-outs stand apart in the source and are kept apart here.

How the values were obtained:
Hsp82 = Hsp82 (Saccharomyces cerevisiae, UniProt P02829); test: Inhibition of the ATPase activity of Hsp82 in the enzymatic coupling system (pyruvate kinase / lactate dehydrogenase); format: biochemical
Text: The formation of ADP due to the ATPase activity of Hsp82 was used to develop another method for evaluating the enzymatic activity of this enzyme by application of an enzymatic coupling system involving pyruvate kinase (PK) and lactate dehydrogenase (LDH). In this kinetic-type spectrophotometric method, the PK catalyzes the formation of ATP and of pyruvate from phosphoenol pyruvate (PEP) and from the ADP produced by Hsp82. The pyruvate formed, which is a substrate for LDH, is then converted to lactate in the presence of NADH. In this case, the decrease in NADH concentration, measured by the decrease in absorbance at the wavelength of 340 nm, is proportional to the concentration of ADP produced by Hsp82.
The products tested were incubated in a reaction volume of 100 μl of buffer composed of 100 mM Hepes-NaOH (pH 7.5), 5 mM MgCl2, 1 mM DTT, 150 mM KCl, 0.3 mM NADH, 2.5 mM PEP and 250 μM ATP. This mixture was preincubated at 37° C. for 30 min before adding 3.77 units of LDH and 3.77 units of PK. The reaction was initiated by addition of the product to be evaluated, in variable concentrations, and of Hsp82, at the concentration of 1 μM. Measurement of the enzymatic activity of Hsp82 was then carried out, continuously, in a microplate reader at 37° C., at the wavelength of 340 nm. The initial rate of the reaction was obtained by measuring the slope of the tangent at the origin of the curve recorded. The enzymatic activity was expressed in μM of ADP formed per minute. The effect of the various products tested was expressed as a percentage inhibition of the ATPase activity.
The inhibitory activities on the ATPase activity of Hsp82 obtained with the products of the invention in the enzymatic coupling system are given in the table below, according to the criteria below for inhibition of the ATPase activity of Hsp82: […]

[1] = ATPase activity of Hsp82, PK/LDH enzymatic coupling system, 1 μM Hsp82, 250 μM ATP, 37° C., absorbance at 340 nm, read-out: IC50

Chain of Hsp82 (P02829 whole entry): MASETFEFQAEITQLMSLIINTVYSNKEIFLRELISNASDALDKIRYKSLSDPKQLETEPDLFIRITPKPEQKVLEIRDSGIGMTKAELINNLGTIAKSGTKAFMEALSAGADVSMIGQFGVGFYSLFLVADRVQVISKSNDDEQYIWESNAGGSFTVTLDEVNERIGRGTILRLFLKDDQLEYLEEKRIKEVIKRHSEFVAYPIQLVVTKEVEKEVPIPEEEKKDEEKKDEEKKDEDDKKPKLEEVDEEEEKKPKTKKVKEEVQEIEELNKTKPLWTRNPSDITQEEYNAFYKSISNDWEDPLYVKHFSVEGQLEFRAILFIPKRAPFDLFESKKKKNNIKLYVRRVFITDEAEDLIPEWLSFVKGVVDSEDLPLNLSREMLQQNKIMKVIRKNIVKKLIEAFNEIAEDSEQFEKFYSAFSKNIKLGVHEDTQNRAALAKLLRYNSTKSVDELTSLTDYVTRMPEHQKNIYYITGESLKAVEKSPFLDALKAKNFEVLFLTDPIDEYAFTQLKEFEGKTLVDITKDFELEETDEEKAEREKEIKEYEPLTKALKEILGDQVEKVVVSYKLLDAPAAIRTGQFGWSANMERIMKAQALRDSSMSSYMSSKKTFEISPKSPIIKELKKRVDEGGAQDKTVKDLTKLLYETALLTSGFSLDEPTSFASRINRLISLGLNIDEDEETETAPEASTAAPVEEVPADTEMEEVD

IC50 (Hsp82; [1]) [µM] | melting point [°C] | SMILES | IC50 (Hsp82) [µM]
– | – | CC(Nc1nc(Cl)nc2[nH]cnc12)c1ccccc1 (racemic) [Example 3, 2-chloro-6-(1(R,S)-phenylethyl)amino-1H-purine] | 10 to 100
1 to 10 | 258 to 260 | Cl.c1ccc(CN2CCN(c3ncnc4[nH]cnc34)CC2)cc1 [Example 1] | –
10 to 100 | – | Clc1nc(OCc2ccccc2)c2nc[nH]c2n1 [Example 2, 2-chloro-6-phenylmethyloxy-1H-purine] | –
10 to 100 | – | Clc1nc(NCCN2CCOCC2)c2nc[nH]c2n1 [Example 4, 2-chloro-6-[2-(morpholin-4-yl)ethylamino]-1H-purine] | –
10 to 100 | – | c1csc(CNc2[nH]cnc3ncnc2-3)c1 [Example 5, 6-(thiophen-2-yl)methylamino-1H-purine] | –
10 to 100 | – | Clc1nc(NCCNCc2ccccc2)c2nc[nH]c2n1 [Example 6] | –
10 to 100 | – | CCOC(=O)CC1CCN(c2ncnc3[nH]cnc23)CC1 [Example 8, 6-[4-(ethyloxycarbonyl)methylpiperidin-1-yl]-1H-purine] | –
1 to 10 | – | c1nc(N2CCCCC2)c2nc[nH]c2n1 [Example 9, 6-(piperidin-1-yl)-1H-purine] | –
1 to 10 | – | c1ccc(N2CCN(c3ncnc4[nH]cnc34)CC2)nc1 [Example 10, 6-[4-(pyridin-2-yl)piperazinyl]-1-H-purine monohydrochloride] | –
